Results: patent publication US4435417A, “Antiinflammatory 3H-naphtho[1,2-d]imidazoles” (Gruppo Lepetit S.p.A., priority 1982, dated 1984)

How the values were obtained:
[1] = test system: adjuvant induced arthritis in rats; assay: Adjuvant induced arthritis test in rats (Newbold); assay type: in vivo, rat; conditions: rats p.o.
Description: In still another some of the compounds were tested in the adjuvant induced arthritis test in rats.
This test which was performed as described by B. B. Newbold in Bri. Journ. Pharmacol., 21, 127, (1963), is absolutely meaningful, because adjuvant arthritis is one of the best pharmacological tool with which a pharmacologist can investigate compounds as to their possible antiinflammatory activity, owing to the fact that this experimental model of chronic inflammation looks closer like to the conditions of rheumatoid arthritis of the human pathology (see Pearson, C. M., Arthritis and allied conditions, page 119, Lea and Febiger Publ. 1967 and Pearson C. M., J. Chronic Diseases, 16, 863 (1963).
. The measure of effectiveness of the compounds in this test is given by their ability in reducing the volume of the hind paws of the rats.

[2] = in vivo; conditions: mouse, po
Description: The toxicities were determined according to Lichtfield and Wilcoxon, Journ. Pharm.

[3] = test system: granuloma formed on a cotton pellet implanted subcutaneously in rats; assay: Cotton pellet granuloma test in rats (Meier et al.); conditions: Rattus norvegicus, po, read-out: Percent inhibition of the granuloma pellet
[4] = test system: carrageenin-induced edema in the rat paw; assay: Carrageenin-induced edema of the rat paw (Winter et al.); assay type: in vivo; conditions: po, read-out: Percent inhibition of the carrageenin-induced edema; for inhibition in vivo at 50 mg/kg: 50 mg/kg os; for inhibition in vivo at 100 mg/kg: 100 mg/kg os; for inhibition in vivo at 200 mg/kg: 200 mg/kg os; for inhibition in vivo at 20 mg/kg: 20 mg/kg os

| Structure (SMILES) | % Reduction of the volume of the hind paws over the control ([1]; 200 mg/kg) [%] | LD50 [2] [mg/kg] | inhibition in vivo at 100 mg/kg [3] [%] | inhibition in vivo at 50 mg/kg [4] [%] | inhibition in vivo at 100 mg/kg [4] [%] | inhibition in vivo at 200 mg/kg [3] [%] | inhibition in vivo at 200 mg/kg [4] [%] | % Reduction of the volume of the hind paws over the control ([1]; 100 mg/kg) [%] | inhibition in vivo at 20 mg/kg [4] [%] |
| --- | --- | --- | --- | --- | --- | --- | --- | --- | --- |
| COc1ccc(-c2nc3c4ccccc4ccc3n2C)cc1 [Example 3, 2-(4-methoxyphenyl)-3-methyl-3H-naphtho[1,2-d]imidazole] | 33 | ~1000 | 40 | 34 | 41 |  |  |  |  |
| CCOc1ccc(-c2nc3c4ccccc4ccc3n2C)cc1 [Example 2, 3-methyl-2-(4-ethoxyphenyl)-3H-naphtho[1,2-d]imidazole] |  | > 1000 |  | 21 | 37 | 40 | 45 |  |  |
| Cc1cc(-c2nc3c4ccccc4ccc3n2C)ccc1N(C)C [Example 5, 4-(3-methyl-3H-naphtho[1,2-d]imidazol-2-yl)-2,N,N-trimethylbenzenamine] |  | 500 | 38 | 50 | 64 |  |  | 42 | 35 |
| COc1ccc(-c2nc3c4ccccc4ccc3n2C(C)C)cc1 [Example 9, 3-(1-methylethyl)-2-(4-methoxyphenyl)-3H-naphth[1,2-d]imidazole] | 53 |  |  | 32 | 45 | 45 | 48 |  |  |
| Cn1c(-c2ccccc2)nc2c3ccccc3ccc21 [Example 1, 3-methyl-2-phenyl-3H-naphtho[1,2-d]imidazole] |  | 1000 |  | 24 | 37 | 24 | 42 |  |  |
| CN(C)c1ccc(-c2nc3c4ccccc4ccc3n2C)cc1 [Example 4, N,N-dimethyl-4-(3-methyl-3H-naphtho[1,2-d]imidazol-2-yl) benzenamine] |  | 500 | 24 | 46 | 54 |  |  |  | 32 |
| CCn1c(-c2ccc(OC)cc2)nc2c3ccccc3ccc21 [Example 15, 3-ethyl-2-(4-methoxyphenyl)-3H-naphtho[1,2-d]imidazole] |  | > 1000 |  | 45 | 49 | 31 | 52 |  | 31 |
| CNc1ccc(-c2nc3c4ccccc4ccc3n2C)cc1 [Example 7, N-methyl-4-(3-methyl-3H-naphtho[1,2-d]imidazol-2-yl)benzenamine] |  | 500 | 33 | 37 | 47 |  |  |  | 29 |
